Calls of active or inactive are those of the source. The rule behind the calls is not given here. Where only a bound is given, the exact number is not on record here.

Experimental findings from ChEMBL document CHEMBL4831527, “Structure-Based Design and Discovery of Pyridyl-Bearing Fused Bicyclic HIV-1 Inhibitors: Synthesis, Biological Characterization, and Molecular Modeling Studies” (J Med Chem, 2021) are described below.

In data set [1] the test system is Human immunodeficiency virus 1. As to the kind of experiment: Antiviral activity against HIV1 3B infected in human MT4 cells assessed as protection against virus-induced cytopathic effect incubated for 5 days by MTT assay. In kind it is functional, organism-based. As to conditions: Human immunodeficiency virus 1, 3B, MT4, 120 h. A general note: Damage to the host cells serves as the signal in cytopathic effect assays.

Data set [2] has as its system Human immunodeficiency virus 1. As to the kind of experiment: Antiviral activity against HIV1 RES056 infected in human MT4 cells assessed as protection against virus-induced cytopathic effect incubated for 5 days by MTT assay. In kind it is functional, organism-based. As to conditions: Human immunodeficiency virus 1, RES056, MT4, 120 h.
Data set [3] can be described thus: Cytotoxicity against mock-infected human MT4 cells assessed as reduction in cell viability measured after 5 days by MTT assay. It counts as cell-based. As to conditions: time 5 day. Background: Tetrazolium assays rely on reduction of a dye to a coloured formazan, in cell work by metabolically active cells.
A short description of data set [4]: Selectivity index, ratio of CC50 for mock-infected human MT4 cells to EC50 for HIV1 3B infected in human MT4 cells. It counts as toxicity, cell-based. The following applies: MT4 cells (mock-infected and HIV1 3B infected), read-out: Ratio CC50/EC50.
A short description of data set [5]: Selectivity index, ratio of CC50 for mock-infected human MT4 cells to EC50 for HIV1 RES056 infected in human MT4 cells. It counts as toxicity, cell-based. The following applies: MT4 cells (mock-infected and HIV1 RES056 infected), read-out: Ratio CC50/EC50.
Data set [6] deals with Human immunodeficiency virus 1. The data set can be described thus: Antiviral activity against HIV1 harboring reverse transcriptase E138K mutant infected in human MT4 cells assessed as protection against virus-induced cytopathic effect incubated for 5 days by MTT assay. It counts as functional, organism-based. The following applies: Human immunodeficiency virus 1, MT4, 120 h.

Data set [7] relates to Human immunodeficiency virus 1. As to the kind of experiment: Antiviral activity against HIV1 harboring reverse transcriptase K103N mutant infected in human MT4 cells assessed as protection against virus-induced cytopathic effect incubated for 5 days by MTT assay. As to conditions: Human immunodeficiency virus 1, MT4, 120 h. It counts as functional, organism-based.
Data set [8] concerns Human immunodeficiency virus 1. The data set can be described thus: Antiviral activity against HIV1 harboring reverse transcriptase Y181C mutant infected in human MT4 cells assessed as protection against virus-induced cytopathic effect incubated for 5 days by MTT assay. It counts as functional, organism-based. As to conditions: Human immunodeficiency virus 1, MT4, 120 h.
Data set [9] relates to Human immunodeficiency virus 1. As to the kind of experiment: Antiviral activity against HIV1 harboring reverse transcriptase Y188L mutant infected in human MT4 cells assessed as protection against virus-induced cytopathic effect incubated for 5 days by MTT assay. In kind it is functional, organism-based. As to conditions: Human immunodeficiency virus 1, MT4, 120 h.
For data set [10], the system named is Human immunodeficiency virus 1. The data set can be described thus: Antiviral activity against HIV1 harboring reverse transcriptase L100I mutant infected in human MT4 cells assessed as protection against virus-induced cytopathic effect incubated for 5 days by MTT assay. In kind it is functional, organism-based. As to conditions: Human immunodeficiency virus 1, MT4, 120 h.

The subject of data set [11] is Human immunodeficiency virus 1. The data set can be described thus: Antiviral activity against HIV1 harboring reverse transcriptase F227L/V106A double mutant infected in human MT4 cells assessed as protection against virus-induced cytopathic effect incubated for 5 days by MTT assay. In kind it is functional, organism-based. The following applies: Human immunodeficiency virus 1, MT4, 120 h.

Data set [12] concerns Human immunodeficiency virus 1. The data set can be described thus: Potency index, ratio of ETR EC50 to test compound EC50 for antiviral activity against HIV1 harboring reverse transcriptase E138K mutant infected in human MT4 cells. It counts as functional.
The target of data set [13] is Human immunodeficiency virus type 1 reverse transcriptase (Human immunodeficiency virus 1, UniProt Q72547). The data set can be described thus: Inhibition of wild type HIV1 p66/p51 reverse transcriptase using poly(rA) as template, oligo(dT)16 as primer and RNA/DNA as substrate measured after 40 mins by PICOGreen-dye based spectrofluorimetry analysis.
The nature of data set [14]: Half life in human liver microsomes at 1 uM in presence of NADPH by LC-MS/MS analysis. In kind it is ADME, Microsome.
For data set [15], the system named is Human immunodeficiency virus 2. The data set can be described thus: Antiviral activity against HIV2 ROD infected in human MT4 cells assessed as protection against virus-induced cytopathogenicity after 5 days by MTT assay. In kind it is functional, organism-based. As to conditions: time 5.0 day.
Data set [16] can be described thus: in vitro. The following applies: human, liver microsomes.
The subject of data set [17] is Human immunodeficiency virus 1. As to the kind of experiment: Potency index, ratio of EFV EC50 to test compound EC50 for antiviral activity against HIV1 RES056 infected in human MT4 cells. In kind it is functional.

Take `Cc1cc(C#N)cc(C)c1Oc1nc(Nc2ccc(C#N)cc2)nc2c1ccn2CC(=O)N1CCOCC1`: the EC50 worked out at 7.7 nM in data set [1]; 782 nM in data set [2]; 6.8 nM in data set [6]; 5.9 nM in data set [7]; 148 nM in data set [8]; 56.7 nM in [9]. In addition, the EC50 in data set [10] is 154 nM; in data set [11] it was 146 nM. The CC50 at 120 h in data set [3] was 2300 nM. The selectivity ratio in [4] was determined as 297; in data set [5] it was 3. The “Ratio EC50” value in [12] is 2.2. Moreover, in data set [13], 155 nM corresponded to half-maximal inhibition (IC50). Moreover, in data set [14], the half-life at 1 µM was 3.1 min. Moreover, the outcome in data set [15] was inactive. Besides, in data set [16], the CLint scaled at 1 h, 1 µM was found to be 397 mL/min/kg.

Compound `O=C(O)Cc1ccccc1Nc1c(Cl)cccc1Cl` [DICLOFENAC] yielded a CLint scaled at 1 h, 1 µM in data set [16] of 310 mL/min/kg.

For `Cc1cc(/C=C/C#N)cc(C)c1Oc1nc(Nc2ccc(C#N)nc2)nc2c1CCCC2`, the EC50 in data set [1] is 7.6 nM; in [2], 58.8 nM; in data set [6], more than 8830 nM; in [7], 7.7 nM; in [8], 34.8 nM; in data set [9], more than 8830 nM. Moreover, the EC50 in data set [10] is 12.8 nM; in [11], more than 8830 nM. The CC50 at 120 h in [3] was found to be 8800 nM. The selectivity ratio in data set [4] stood at 1160; in data set [5] it was 150. Besides, the “Ratio EC50” value in data set [17] is listed as 2.4. For the same compound, the midpoint of inhibition in data set [13], the IC50, lay at 147 nM. Also, the half-life at 1 µM in data set [14] came out at 26.5 min. The result in [15] was inactive. In [16], this compound returned a CLint scaled at 1 h, 1 µM of 47 mL/min/kg.

With `Cc1cc(/C=C/C#N)cc(C)c1Oc1nc(Nc2ccc(C#N)cc2)nn2cccc12`, the EC50 in [1] is 12.6 nM; in [2], 61.1 nM; in [6], more than 41300 nM; in data set [7], 4.8 nM; in [8], 19.7 nM; in data set [9], more than 41300 nM. For the same compound, the concentration giving a half-maximal response (EC50) was 7.8 nM in data set [10] and more than 41300 nM in [11]. The CC50 at 120 h in [3] came out at 5000 nM. For the same compound, the values for the selectivity ratio in data set [4] and in [5] were 395 and 81, respectively. The “Ratio EC50” value in data set [17] is listed as 2.4. The IC50 in data set [13] was 43 nM. Moreover, the half-life at 1 µM in [14] amounted to 43.3 min. In [15], the result was inactive. In addition, the CLint scaled at 1 h, 1 µM in data set [16] was 28.8 mL/min/kg.

Consider `C[C@]12CC[C@H]3[C@@H](CCC4=CC(=O)CC[C@@]43C)[C@@H]1CC[C@@H]2O` [TESTOSTERONE], for which the intrinsic metabolic clearance (CLint scaled) at 1 h, 1 µM in data set [16] turned out to be 126 mL/min/kg.

As for `Cc1cc(/C=C/C#N)cc(C)c1Nc1ccnc(Nc2ccc(C#N)cc2)n1` [RILPIVIRINE], the half-life at 1 µM in data set [14] is 12.8 min. The same compound came in with a CLint scaled at 1 h, 1 µM in data set [16] of 97.6 mL/min/kg.

For `Cc1cc(/C=C/C#N)cc(C)c1Oc1nc(Nc2ccc(C#N)cc2)nc2c1CCCC2`, the EC50 in data set [1] came to 14 nM; in data set [2] it was 68.2 nM; in data set [6], 61.3 nM; in data set [7], 17 nM; in [8] it was 40.9 nM; in [9], 77.9 nM. Also, the EC50 worked out at 18 nM in data set [10] and 95.3 nM in data set [11]. For the same compound, the CC50 at 120 h in data set [3] amounted to 7200 nM. In addition, the results for the selectivity ratio in data set [4] and in [5] were 513 and 105, respectively. In [17], the “Ratio EC50” value was determined as 2.1. Also, the IC50 in data set [13] came out at 119 nM. For the same compound, the half-life at 1 µM in [14] was found to be 27.4 min. For the same compound, in data set [15], the result was inactive. In [16], this compound showed a CLint scaled at 1 h, 1 µM of 45.5 mL/min/kg.

With `Cc1cc(C)c(Oc2nc(Nc3ccc(C#N)cc3)nc3c2CCCC3)c(C)c1`, the EC50 in data set [1] is 38.6 nM; in data set [2] it was 805 nM; in data set [6], 171 nM; in data set [7] it was 57 nM; in data set [8] it was 232 nM; in data set [9] it was 191 nM. Besides, the EC50 in [10] came out at 96.9 nM; in data set [11], 524 nM. In addition, the CC50 at 120 h in data set [3] was found to be 6800 nM. The selectivity ratio in data set [4] was 177; in [5], 8. In addition, in data set [13], it took 241 nM to reach half-maximal inhibition (IC50). In addition, the result in data set [15] was inactive.

By EC50 is commonly meant the concentration at which the effect is half-maximal. By CC50 is commonly meant the concentration at which the toxic effect on the cells reaches its halfway point. By IC50 is commonly meant the concentration that gives 50% inhibition. Read a high IC50 as a need for much substance. In general, half-life refers to how long it takes for the measured level to halve. Broadly, the CLint scaled is the rate of metabolic loss divided by the concentration. A low value points to slow turnover.
